From ChEMBL document CHEMBL4823310, “Small Molecule Inhibitors of KRAS G12C Mutant” (ACS Med Chem Lett, 2021) come the findings set out here.

A short description of assay [1]: Inhibition of ERK phosphorylation in human NCI-H358 cells incubated for 2 hrs by cellular assay. It is filed as cell-based. To be noted: NCI-H358, 2 h.
In another assay the target is GTPase KRas (Homo sapiens, UniProt P01116, C118S/C51S/C80L/G12C). Put plainly: Inhibition of biotinylated KRAS G12C/C51S/C80L/C118S mutant (unknown origin) pretreated for 60 mins followed by recombinant SOS addition by SOS-catalyzed nucleotide exchange-based TR-FRET analysis. Background: Time-resolved FRET reads energy transfer from a long-lived donor to a nearby acceptor.
Chain of GTPase KRas (P01116 whole entry G12C/C51S/C80L/C118S): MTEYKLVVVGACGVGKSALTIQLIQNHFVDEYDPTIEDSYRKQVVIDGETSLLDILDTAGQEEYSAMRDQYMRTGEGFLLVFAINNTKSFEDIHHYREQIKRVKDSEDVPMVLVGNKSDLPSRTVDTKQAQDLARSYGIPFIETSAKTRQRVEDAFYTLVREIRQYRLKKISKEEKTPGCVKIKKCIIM

Take `C=CC(=O)N1C[C@H](C)N(c2nc(=O)n3c4nc(c(F)cc24)-c2c(F)cccc2OCCCc2ccnc(C(C)C)c2-3)C[C@H]1C`: the midpoint of inhibition in assay [1], the IC50, lay at 8.8 nM. As for `C=CC(=O)N1CCN(c2nc(=O)n3c4nc(c(Cl)cc24)-c2c(F)cccc2OCC(F)(F)CCc2ccnc(C(C)C)c2-3)[C@@H](C)C1`, the values for the IC50 (in assay [1]; at GTPase KRas) were 3 nM and 0.56 nM, respectively. As to `C=CC(=O)N1C[C@H](C)N(c2nc(=O)n3c4nc(c(Cl)cc24)-c2c(F)cccc2OCCc2ccnc(C(C)C)c2-3)C[C@H]1C`, the IC50 (as a rule, the concentration needed to halve the response being measured) came to 5.1 nM in assay [1] and 2.6 nM on GTPase KRas. Compound `C=CC(=O)N1C[C@H](C)N(c2nc(=O)n3c4nc(c(F)cc24)-c2c(F)cccc2OCCCCc2ccnc(C(C)C)c2-3)C[C@H]1C` registered an IC50 in assay [1] of 2.2 nM. With `C=CC(=O)N1C[C@H](C)N(c2nc(=O)n3c4nc(c(Cl)cc24)-c2c(F)ccc(F)c2OCCOc2ccnc(C(C)C)c2-3)C[C@H]1C`, the IC50 was 4.4 nM in assay [1] and 1.1 nM on GTPase KRas. `C=CC(=O)N1C[C@H](C)N(c2nc(=O)n3c4nc(c(F)cc24)-c2c(ccc(F)c2F)OCCC(C)c2ccnc(C(C)C)c2-3)C[C@H]1C` (stereo partly drawn) displayed an IC50 in assay [1] of 6.8 nM. Take `C=CC(=O)N1C[C@H](C)N(c2nc(=O)n3c4nc(c(Cl)cc24)-c2c(ccc(F)c2F)OCCCc2ncnc(C(C)C)c2-3)C[C@H]1C`: half-maximal inhibition in assay [1] (IC50) was put at 3.6 nM. With `C=CC(=O)N1CCN(c2nc(=O)n3c4nc(c(F)cc24)-c2c(F)cccc2OCCCc2ccnc(C(C)C)c2-3)[C@@H](C)C1`, the IC50 was found to be 6.7 nM in assay [1] and 4.3 nM on GTPase KRas. With `C=CC(=O)N1C[C@H](C)N(c2nc(=O)n3c4nc(c(Cl)cc24)-c2c(F)cccc2OCC(F)(F)COc2ccnc(C(C)C)c2-3)C[C@H]1C`, the IC50 in assay [1] is 6.1 nM. Regarding `C=CC(=O)N1CCN(c2nc(=O)n3c4nc(c(F)cc24)-c2c(F)cccc2OCCCCc2ccnc(C(C)C)c2-3)[C@@H](C)C1`, the IC50 in assay [1] came out at 1.5 nM; at GTPase KRas, 2.4 nM. As to `[2H]C1([2H])Oc2ccc(F)c(F)c2-c2nc3c(cc2Cl)c(N2C[C@@H](C)N(C(=O)C=C)C[C@@H]2C)nc(=O)n3-c2c(ccnc2C(C)C)OC1([2H])[2H]`, the IC50 in assay [1] turned out to be 6.1 nM; at GTPase KRas, 0.51 nM. `C=CC(=O)N1C[C@H](C)N(c2nc(=O)n3c4nc(c(F)cc24)-c2c(Cl)cccc2OCCCc2ccnc(C(C)C)c2-3)C[C@H]1C` showed an IC50 in assay [1] of 3.6 nM.
